Reference: patent publication US11053204B2, “Pyrimidinyloxy benzene derivatives as herbicides” (FMC Corporation, priority 2015, dated 2021)

Tests used:
Type in all cases: in vivo
[1] = test system: lambsquarters (Chenopodium album); experiment: Test C postemergence, plant response rating; details: for Lambsquarters plant response rating: scale 0 to 100 (0 no effect, 100 complete control)
Summary of the method: (§1)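 Visual injury score, 0 = no effect, 100 = complete control, assigned against untreated controls after 13 to 15 d in the greenhouse. Compounds were applied in a surfactant-containing non-phytotoxic solvent mix, preemergence to seeded loam/sand or silt loam soil, or postemergence to 1- to 4-leaf plants (2 to 18 cm).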

[2] = test system: morningglory (Ipomoea coccinea); experiment: Test C postemergence, plant response rating; details: for Morningglory plant response rating: scale 0 to 100 (0 no effect, 100 complete control)
Summary of the method: as §1

[3] = test system: barnyardgrass (Echinochloa crus-galli); experiment: Test C postemergence, plant response rating; details: for Plant response rating, Barnyardgrass: scale 0 to 100; for Barnyardgrass plant response rating: scale 0 to 100 (0 no effect, 100 complete control)
Summary of the method: as §1

[4] = test system: foxtail, giant (giant foxtail, Setaria faberii); experiment: Test C postemergence, plant response rating; details: for Foxtail, Giant plant response rating: scale 0 to 100 (0 no effect, 100 complete control)
Summary of the method: as §1

[5] = test system: crabgrass, large (large crabgrass, Digitaria sanguinalis); experiment: Test C postemergence, plant response rating; details: for Crabgrass, Large plant response rating: scale 0 to 100 (0 no effect, 100 complete control)
Summary of the method: as §1

[6] = test system: soybean (Glycine max); experiment: Test C postemergence, plant response rating; details: for Soybean plant response rating: scale 0 to 100 (0 no effect, 100 complete control)
Summary of the method: as §1

[7] = test system: nutsedge, yellow (yellow nutsedge, Cyperus esculentus); experiment: Test C postemergence, plant response rating; details: for Nutsedge, Yellow plant response rating: scale 0 to 100 (0 no effect, 100 complete control)
Summary of the method: as §1

[8] = test system: corn (Zea mays); experiment: Test C postemergence, plant response rating; details: for Corn plant response rating: scale 0 to 100 (0 no effect, 100 complete control)
Summary of the method: as §1

[9] = test system: ryegrass, Italian (Italian ryegrass, Lolium multiflorum); experiment: Test C postemergence, plant response rating; details: for Ryegrass, Italian plant response rating: scale 0 to 100 (0 no effect, 100 complete control)
Summary of the method: as §1

[10] = test system: oat, wild (wild oat Avena fatua); experiment: Test C postemergence, plant response rating; details: for Oat, Wild plant response rating: scale 0 to 100 (0 no effect, 100 complete control)
Summary of the method: as §1

[11] = test system: wheat (winter wheat, Triticum aestivum); experiment: Test C postemergence, plant response rating
Summary of the method: as §1

[12] = test system: chickweed (common chickweed, Stellaria media); experiment: Test C postemergence, plant response rating; details: for Chickweed plant response rating: scale 0 to 100 (0 no effect, 100 complete control)
Summary of the method: as §1

[13] = test system: oilseed rape (Brassica napus); experiment: Test C postemergence, plant response rating; details: for Oilseed Rape plant response rating: scale 0 to 100 (0 no effect, 100 complete control)
Summary of the method: as §1

[14] = test system: kochia (Kochia scoparia); experiment: Test C postemergence, plant response rating; details: for Kochia plant response rating: scale 0 to 100 (0 no effect, 100 complete control)
Summary of the method: as §1

[15] = test system: blackgrass (Alopecurus myosuroides); experiment: Test C postemergence, plant response rating; details: for Plant response rating, Blackgrass: scale 0 to 100; for Blackgrass plant response rating: scale 0 to 100 (0 no effect, 100 complete control)
Summary of the method: as §1

[16] = test system: barnyardgrass (Echinochloa crus-galli); experiment: Test A preemergence, visual injury rating; details: 0 to 100 scale (0 no effect, 100 complete control)
Summary of the method: (§2)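 Pre- and postemergence greenhouse screen. Soil: loam + sand. Spray carrier: solvent mixture, non-phytotoxic, with surfactant. Post timing at 1–2 leaves, height 2–10 cm. Readout: visual injury on a 0–100 scale roughly 10 days after application, untreated plants as reference.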

[17] = test system: kochia (Kochia scoparia); experiment: Test A preemergence, visual injury rating; details: 0 to 100 scale (0 no effect, 100 complete control)
Summary of the method: as §2

CCCCC(=O)c1c(Oc2ncc(Cl)cn2)cccc1C(F)(F)F [Compound 130]
75: Plant response rating, Lambsquarters ([1]; 16 g ai/ha, scale of 0 to 100) | Soybean plant response rating ([6]; 62 g ai/ha) | Plant response rating, Chickweed ([12]; 16 g ai/ha, scale of 0 to 100) | Plant response rating, Chickweed ([12]; 31 g ai/ha, scale 0 to 100)
55: Morningglory plant response rating ([2]; 125 g ai/ha) | Plant response rating, Soybean ([6]; 31 g ai/ha, scale 0 to 100)
5: Plant response rating, Barnyardgrass ([3]; 16 g ai/ha) | Plant response rating, Barnyardgrass ([3]; 31 g ai/ha) | Plant response rating, Crabgrass, Large ([5]; 16 g ai/ha, scale of 0 to 100) | Nutsedge, Yellow plant response rating ([7]; 62 g ai/ha) | Nutsedge, Yellow plant response rating ([7]; 125 g ai/ha) | Plant response rating, Ryegrass, Italian ([9]; 16 g ai/ha, scale of 0 to 100) | Plant response rating, Oat, Wild ([10]; 16 g ai/ha, scale of 0 to 100) | Plant response rating, Wheat ([11]; 31 g ai/ha, scale 0 to 100) | Plant response rating, Blackgrass ([15]; 16 g ai/ha) | Plant response rating, Blackgrass ([15]; 31 g ai/ha)
100: Plant response rating, Barnyardgrass ([16]; 125 g ai/ha) | Barnyardgrass plant response rating ([16]; 500 g ai/ha) | Plant response rating, Kochia ([17]; 125 g ai/ha) | Kochia plant response rating ([17]; 500 g ai/ha)
25: Plant response rating, Morningglory ([2]; 31 g ai/ha, scale 0 to 100)
98: Oilseed Rape plant response rating ([13]; 125 g ai/ha) | Kochia plant response rating ([14]; 125 g ai/ha)
30: Foxtail, Giant plant response rating ([4]; 125 g ai/ha) | Wheat plant response rating ([11]; 125 g ai/ha, scale 0 to 100 (0 no effect, 100 complete control)) | Blackgrass plant response rating ([15]; 125 g ai/ha)
10: Plant response rating, Morningglory ([2]; 16 g ai/ha, scale of 0 to 100) | Barnyardgrass plant response rating ([3]; 62 g ai/ha) | Plant response rating, Foxtail, Giant ([4]; 16 g ai/ha, scale of 0 to 100) | Plant response rating, Foxtail, Giant ([4]; 31 g ai/ha, scale 0 to 100) | Foxtail, Giant plant response rating ([4]; 62 g ai/ha) | Plant response rating, Crabgrass, Large ([5]; 31 g ai/ha, scale 0 to 100) | Crabgrass, Large plant response rating ([5]; 62 g ai/ha) | Plant response rating, Corn ([8]; 16 g ai/ha, scale of 0 to 100) | Plant response rating, Ryegrass, Italian ([9]; 31 g ai/ha, scale 0 to 100) | Ryegrass, Italian plant response rating ([9]; 62 g ai/ha) | Plant response rating, Oat, Wild ([10]; 31 g ai/ha, scale 0 to 100) | Plant response rating, Wheat ([11]; 16 g ai/ha, scale of 0 to 100)
0: Plant response rating, Nutsedge, Yellow ([7]; 16 g ai/ha, scale of 0 to 100) | Plant response rating, Nutsedge, Yellow ([7]; 31 g ai/ha, scale 0 to 100)
20: Barnyardgrass plant response rating ([3]; 125 g ai/ha) | Crabgrass, Large plant response rating ([5]; 125 g ai/ha) | Plant response rating, Corn ([8]; 31 g ai/ha, scale 0 to 100) | Corn plant response rating ([8]; 125 g ai/ha) | Blackgrass plant response rating ([15]; 62 g ai/ha)
90: Plant response rating, Lambsquarters ([1]; 31 g ai/ha, scale 0 to 100) | Chickweed plant response rating ([12]; 125 g ai/ha)
80: Chickweed plant response rating ([12]; 62 g ai/ha) | Plant response rating, Kochia ([14]; 16 g ai/ha, scale of 0 to 100)
85: Lambsquarters plant response rating ([1]; 62 g ai/ha) | Plant response rating, Oilseed Rape ([13]; 31 g ai/ha, scale 0 to 100) | Plant response rating, Kochia ([14]; 31 g ai/ha, scale 0 to 100)
95: Lambsquarters plant response rating ([1]; 125 g ai/ha) | Soybean plant response rating ([6]; 125 g ai/ha) | Oilseed Rape plant response rating ([13]; 62 g ai/ha) | Kochia plant response rating ([14]; 62 g ai/ha)
15: Corn plant response rating ([8]; 62 g ai/ha) | Ryegrass, Italian plant response rating ([9]; 125 g ai/ha) | Oat, Wild plant response rating ([10]; 62 g ai/ha) | Oat, Wild plant response rating ([10]; 125 g ai/ha)
40: Plant response rating, Soybean ([6]; 16 g ai/ha, scale of 0 to 100)
70: Plant response rating, Oilseed Rape ([13]; 16 g ai/ha, scale of 0 to 100)
65: Morningglory plant response rating ([2]; 62 g ai/ha)
